Results taken from patent US11414431B2, “Substituted pyrazolo[1,5-a]pyrimidines as TYK2 inhibitors” (Nimbus Lakshmi, Inc., priority 2018, dated 2022).

How the values were obtained:
[1] = target: human TYK2 (JH2domain-pseudokinase) (Homo sapiens (Human), UniProt P29597); assay: TYK2 JH2 Domain Binding Assay (KINOMEscan); settings: 11-point 3-fold dilution, top concentration 30,000 nM, duplicate; read-out: hTYK2_JH2_Binding (Kd; nM)
Method in brief: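 KINOMEscan competition binding: HEK293-expressed NFkB-fused TYK2 JH2 (G556–D888), DNA-tagged, against immobilized ligand beads, 1 h shaking at room temperature, 0.9% DMSO. Bound kinase quantified by qPCR.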

[2] = tested on: IL-12 induced STAT4 phosphorlyation mediated by TYK2/JAK2; assay: IL-12 Induced pSTAT4 in Human PBMC; type: cell-based; settings: 1.7 ng/mL IL-12 for 30 minutes
Method in brief: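 pSTAT4 and total STAT4 quantified by MSD in lysates of cryopreserved human PBMC after 30-minute stimulation with 1.7 ng/mL IL-12 (final). Compound was added 1 hr beforehand at 37° C, 0.1% DMSO final.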

Chain of human TYK2 (JH2domain-pseudokinase) (P29597 556-888): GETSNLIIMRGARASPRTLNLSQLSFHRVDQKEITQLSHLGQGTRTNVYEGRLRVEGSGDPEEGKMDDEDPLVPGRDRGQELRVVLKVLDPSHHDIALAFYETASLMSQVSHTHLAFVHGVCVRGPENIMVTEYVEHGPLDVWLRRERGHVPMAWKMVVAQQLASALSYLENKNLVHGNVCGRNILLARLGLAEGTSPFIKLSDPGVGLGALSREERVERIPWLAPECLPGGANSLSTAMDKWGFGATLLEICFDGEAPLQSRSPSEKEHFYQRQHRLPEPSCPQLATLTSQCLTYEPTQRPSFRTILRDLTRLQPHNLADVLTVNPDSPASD

SMILES | Kd [1] | IC50 ([2]; 0.5 h) | IC50 [2]
CNc1cc(-c2cnc3n(C4CCOCC4)cccc2-3)nc2c(C(=O)NC3CC[C@@H]3OC)cnn12 (stereo in doubt) [Compound I-985, N-(2-methoxycyclobutyl)-7-(methylamino)-5-(7-(tetrahydro-2H-pyran-4-yl)-7H-pyrrolo[2,3-b]pyridin-3-yl)pyrazolo[1,5-a]pyrimidine-3-carboxamide] | < 0.2 nM | < 0.1 µM | –
CNc1cc(Nc2cccn([C@@H]3CCC[C@](C)(O)C3)c2=O)nc2c(C(=O)NC3CC3)cnn12 [Compound I-3, N-cyclopropyl-5-((1-((1R,3S)-3-hydroxy-3-methylcyclohexyl)-2-oxo-1,2-dihydropyridin-3-yl)amino)-7-(methylamino)pyrazolo[1,5-a]pyrimidine-3-carboxamide] | < 0.2 nM | < 0.1 µM | –
CNc1cc(Nc2cccn([C@H]3C[C@H](OC)C3)c2=O)nc2c(C(=O)NC3CC3)cnn12 [Compound I-4, N-Cyclopropyl-5-((1-((1r,3r)-3-methoxycyclobutyl)-2-oxo-1,2-dihydropyridin-3-yl)amino)-7-(methylamino)pyrazolo[1,5-a]pyrimidine-3-carboxamide] | < 0.2 nM | < 0.1 µM | –
CNc1cc(Nc2cccn([C@H]3C[C@H](OC)C3)c2=O)nc2c(C(=O)N[C@@H]3C[C@@H]3F)cnn12 [Compound I-8, N-((1R,2S)-2-Fluorocyclopropyl)-5-((1-((1r,3R)-3-methoxycyclobutyl)-2-oxo-1,2-dihydropyridin-3-yl)amino)-7-(methylamino)pyrazolo[5-a]pyrimidine-3-carboxamide] | < 0.2 nM | < 0.1 µM | –
CNc1cc(-c2cn([C@H]3CCCOC3)c3ncccc23)nc2c(C(=O)N[C@@H]3CC[C@@H]3O)cnn12 [Compound I-14, N-((1R,2S)-2-Hydroxycyclobutyl)-7-(methylamino)-5-(1-((S)-tetrahydro-2H-pyran-3-yl)-1H-pyrrolo[2,3-b]pyridin-3-yl)pyrazolo[1,5-a]pyrimidine-3-carboxamide] | < 0.2 nM | < 0.1 µM | –
CNc1cc(Nc2cccn([C@H]3CC[C@H](OC)CC3)c2=O)nc2c(C(=O)N[C@@H]3C[C@H]3OC)cnn12 [Compound I-31, 5-((1-((1r,4R)-4-Methoxycyclohexyl)-2-oxo-1,2-dihydropyridin-3-yl)amino)-N-((1R,2R)-2-methoxycyclopropyl)-7-(methylamino)pyrazolo[1,5-a]pyrimidine-3-carboxamide] | < 0.2 nM | – | < 0.1 µM
CNc1cc(Nc2cccn([C@H]3CC[C@H](OC)CC3)c2=O)nc2c(C(=O)N[C@H]3C[C@@H]3OC)cnn12 [Compound I-32, 5-((1-((1r,4S)-4-Methoxycyclohexyl)-2-oxo-1,2-dihydropyridin-3-yl)amino)-N-((1S,2S)-2-methoxycyclopropyl)-7-(methylamino)pyrazolo[1,5-a]pyrimidine-3-carboxamide] | < 0.2 nM | – | < 0.1 µM
CNc1cc(Nc2cccn(C3CC(F)(F)C3)c2=O)nc2c(C(=O)N[C@H]3CC[C@H](O)C3)cnn12 [Compound I-41, 5-((1-(3,3-Difluorocyclobutyl)-2-oxo-1,2-dihydropyridin-3-yl)amino)-N-((1S,3S)-3-hydroxycyclopentyl)-7-(methylamino)pyrazolo[1,5-a]pyrimidine-3-carboxamide] | 0.2 to 1 nM | < 0.1 µM | –
CNc1cc(Nc2ccc(F)n(-c3ccccn3)c2=O)nc2c(C(=O)N[C@@H]3C[C@@H]3F)cnn12 [Compound I-474, 5-((6-Fluoro-2-oxo-2H-[1,2′-bipyridin]-3-yl)amino)-N-((1R,2S)-2-fluorocyclopropyl)-7-(methylamino)pyrazolo[1,5-a]pyrimidine-3-carboxamide] | 1 to 10 nM | – | –
CNc1ccc(-c2cc(NC)n3ncc(C(=O)NC4CC4)c3n2)n2ccnc12 [Compound I-478, N-Cyclopropyl-7-(methylamino)-5-(8-(methylamino)imidazo[1,2-a]pyridin-5-yl)pyrazolo[1,5-a]pyrimidine-3-carboxamide] | 0.2 to 1 nM | – | –
CNc1ccc(-c2cc(NC)n3ncc(C(=O)N[C@H]4CC[C@@H]4OC)c3n2)n2ccnc12 [Compound I-489] | > 10 nM | – | –
CNc1ccc(-c2cc(NC)n3ncc(C(=O)NC4CCC4(F)F)c3n2)n2ccnc12 (stereo not shown) [Compound I-491] | < 0.2 nM | – | –
CNc1cc(-c2cn([C@H]3COC[C@@H]3O)c3ncccc23)nc2c(C(=O)NC3CC3)cnn12 [Compound I-496] | < 0.2 nM | – | –
CNc1cc(-c2cn([C@@H]3COC[C@H]3O)c3ncccc23)nc2c(C(=O)NC3CC3)cnn12 [Compound I-497] | < 0.2 nM | – | –
CNc1cc(-c2cn([C@H]3CCOC[C@@H]3O)c3ncccc23)nc2c(C(=O)NC3CC3)cnn12 [Compound I-498] | < 0.2 nM | – | –
CNc1cc(-c2cn([C@@H]3CCOC[C@H]3O)c3ncccc23)nc2c(C(=O)NC3CC3)cnn12 [Compound I-499] | < 0.2 nM | – | –
CNc1cc(-c2cn([C@H]3COC[C@@H]3O)c3ncccc23)nc2c(C(=O)N[C@@H]3C[C@@H]3F)cnn12 [Compound I-501] | < 0.2 nM | – | –
CNc1cc(-c2cn([C@@H]3COC[C@H]3OC)c3ncccc23)nc2c(C(=O)N[C@@H]3C[C@@H]3F)cnn12 [Compound I-503] | < 0.2 nM | – | –
CNc1cc(-c2cn([C@H]3COC[C@@H]3OC)c3ncccc23)nc2c(C(=O)N[C@@H]3C[C@@H]3F)cnn12 [Compound I-504] | < 0.2 nM | – | –
CNc1cc(-c2cn([C@@H]3CCOC[C@H]3O)c3ncccc23)nc2c(C(=O)N[C@@H]3C[C@@H]3F)cnn12 [Compound I-505] | < 0.2 nM | – | –
CNc1cc(-c2cn([C@H]3CCOC[C@@H]3O)c3ncccc23)nc2c(C(=O)N[C@@H]3C[C@@H]3F)cnn12 [Compound I-506] | < 0.2 nM | – | –

SMILES | Kd [1] | IC50 ([2]; 0.5 h) | IC50 [2]
CNc1cc(-c2cn(C3COC3)c3ncccc23)nc2c(C(=O)N[C@@H]3CC[C@H]3F)cnn12 [Compound I-509] | < 0.2 nM | – | –
CNc1cc(-c2cn(C3CN(C)C3)c3ncccc23)nc2c(C(=O)NC3COC[C@H]3O)cnn12 (stereo partly shown) [Compound I-714] | > 10 nM | – | –
O=C(NC1CC1)c1cnn2c3c(c(Nc4cccn(C5CCOCC5)c4=O)nc12)OCCN3 [Compound I-748] | < 0.2 nM | – | –
O=C(NC1CC1)c1cnn2c3c(c(Nc4cccc5ocnc45)nc12)OCCN3 [Compound I-749] | < 0.2 nM | – | –
O=C(N[C@@H]1C[C@@H]1F)c1cnn2c3c(c(Nc4cccn(C5CCOCC5)c4=O)nc12)OCCN3 [Compound I-751, N-((1R,2S)-2-Fluorocyclopropyl)-5-((2-oxo-1-(tetrahydro-2H-pyran-4-yl)-1,2-dihydropyridin-3-yl)amino)-2,3-dihydro-1H-pyrazolo[5′,1′:2,3]pyrimido[5,4-b][1,4]oxazine-7-carboxamide] | < 0.2 nM | – | –
CC(C)n1cc(-c2nc3c(C(=O)N[C@@H]4CC[C@@H]4O)cnn3c3c2OCCN3)c2cccnc21 [Compound I-755] | < 0.2 nM | – | –
O=C(N[C@@H]1CC[C@H]1F)c1cnn2c3c(c(-c4cn([C@H]5C[C@H](O)C5)c5ncccc45)nc12)OCCN3 [Compound I-758] | < 0.2 nM | – | –
CO[C@@H]1CC[C@H]1NC(=O)c1cnn2c3c(c(Nc4cccn([C@H]5[C@@H]6COC[C@@H]65)c4=O)nc12)OCCN3 [Compound I-763] | > 10 nM | – | –
CO[C@H]1CC[C@@H]1NC(=O)c1cnn2c3c(c(Nc4cccn([C@H]5[C@@H]6COC[C@@H]65)c4=O)nc12)OCCN3 [Compound I-764] | < 0.2 nM | – | –
CC(C)n1cccc(Nc2nc3c(C(=O)N[C@@H]4CCC4(F)F)cnn3c3c2OCCN3)c1=O [Compound I-767] | < 0.2 nM | – | –
O=C(N[C@H]1CCC1(F)F)c1cnn2c3c(c(Nc4cccn([C@H]5[C@@H]6COC[C@@H]65)c4=O)nc12)OCCN3 [Compound I-770] | > 10 nM | – | –
O=C(N[C@H]1CCC1(F)F)c1cnn2c3c(c(-c4cn(C5COC5)c5ncccc45)nc12)OCCN3 [Compound I-773] | < 0.2 nM | – | –
CNc1cc(-c2cnc3n([C@@H]4COC[C@H]4OC)cccc2-3)nc2c(C(=O)N[C@@H]3C[C@@H]3F)cnn12 [Compound I-822] | < 0.2 nM | – | –
CNc1cc(-c2cnc3n([C@H]4COC[C@@H]4OC)cccc2-3)nc2c(C(=O)N[C@@H]3C[C@@H]3F)cnn12 [Compound I-823] | < 0.2 nM | – | –
CNc1cc(-c2ccc(N3CC[C@H](OC)C3)c3nccn23)nc2c(C(=O)NC3CC[C@H]3O)cnn12 (stereo partly shown) [Compound I-907] | < 0.2 nM | – | –
CNc1cc(-c2cn([C@H]3C[C@@H](COC)C3)c3ncccc23)nc2c(C(=O)N[C@@H]3CC[C@H]3OC)cnn12 [Compound I-934] | < 0.2 nM | – | –
CNc1cc(-c2cnc3n(CC(=O)N(C)C)cccc2-3)nc2c(C(=O)NC3CC[C@@H]3OC)cnn12 (stereo partly shown) [Compound I-961] | < 0.2 nM | – | –
CNc1cc(-c2cnc3n(CC(=O)N4CC5(COC5)C4)cccc2-3)nc2c(C(=O)N[C@@H]3CC[C@H]3OC)cnn12 [Compound I-1013] | < 0.2 nM | – | –
CNc1cc(-c2cn([C@H]3CO[C@@H](COC)C3)c3ncccc23)nc2c(C(=O)N[C@@H]3CC[C@H]3OC)cnn12 [Compound I-1019, N-((1R,2R)-2-methoxycyclobutyl)-5-(1-(5-(methoxymethyl)tetrahydrofuran-3-yl)-1H-pyrrolo[2,3-b]pyridin-3-yl)-7-(methylamino)pyrazolo[1,5-a]pyrimidine-3-carboxamide] | 1 to 10 nM | – | –
CNc1cc(-c2cnc3n(C4CCN(CCOC)CC4)cccc2-3)nc2c(C(=O)N[C@@H]3CC[C@H]3OC)cnn12 [Compound I-1021, N-((1R,2R)-2-methoxycyclobutyl)-5-(7-(1-(2-methoxyethyl)piperidin-4-yl)-7H-pyrrolo[2,3-b]pyridin-3-yl)-7-(methylamino)pyrazolo[1,5-a]pyrimidine-3-carboxamide] | 0.2 to 1 nM | – | –
